Data from patent US20090203709A1, “Pharmaceutical Dosage Form For Oral Administration Of Tyrosine Kinase Inhibitor” (ABBOTT LABORATORIES, priority 2008, published 2009).
Read-outs that look alike come from different tables or passages of the source. Marks after values point to notes of the source that are not given here.

Key:
[1] = PK comparison across studies M04-710 and M05-756 (race, cancer type); assay type: in vivo, human; conditions: for Dose Normalized AUC24 / Dose Normalized Cmax: steady state; for half-life: human, plasma, oral
Protocol: The objective of this analysis was to compare pharmacokinetic (PK) parameters and to monitor safety and early efficacy of ABT-869 when treating solid tumors versus hematologic malignances, Asian versus Caucasian populations and using solution versus tablet formulations.
In study M04-710, blood samples for pharmacokinetic analysis were collected on Days 1 and 15 at the following times: 0 (pre-dose), 0.5, 1, 2, 3, 4, 6, 8, and 24 h (Day 1 only).
In study M05-756, blood samples for pharmacokinetic analysis were collected on Days 1 and 8 at the following times: 0 (pre-dose), 0.5, 1, 2, 3, 4, 6, 8, and 24 h (Day 1 only). Urine was collected for the 24 hour period following dosing on Day 13 through bedtime on Day 14 (non-hematologic malignancy study) and following dosing after Day 6 and through bedtime on Day 7 (AML/MDS study). Plasma and urine concentrations of ABT-869 were determined under the supervision of the Drug Analysis Department at Abbott using LCMS/MS. PK parameters were determined by noncompartmental analysis using WinNonlin Professional Version 5.0.1.

[2] = Safety in study M04-710 (adverse events, DLTs); assay type: in vivo, human
Protocol: Study M04-710 and M05-756 are ongoing, open-label, multiple-dose escalation trials with ABT-869 administered daily for 21 consecutive days, with dose escalation scheduled in cohorts of 3 subjects. […] In both studies dosing was initiated at 10 mg QD, with subjects self-administering ABT-869 orally (admixed with approximately 60 mL of Ensure Plus or an approved alternative) at bedtime. Food was not allowed 2 h before or after dosing. As a portion of trial M04-710, the bioavailability of ABT-869 as a single dose in a 10 mg tablet formulation was determined relative to the solution formulation.
(§1) The following safety evaluations were performed during the studies: adverse event monitoring, vital signs, ECGs, physical examination and laboratory tests assessments.

[3] = human, in vivo
Protocol: Food was not allowed 2 h before or after dosing.
as §1

[4] = Asian population, N 37, adjusted mean (% CV)
[5] = Caucasian population, N 12, adjusted mean (% CV)
[6] = Hematologic malignancies, N 17, adjusted mean (% CV)
[7] = Solid tumors, N 32, adjusted mean (% CV)
[8] = all cycles, N = 27, highest grade per subject
[9] = all cycles, N = 27, includes Skin Reaction, Skin Lesion, and Rash

## Cc1ccc(F)c(NC(=O)Nc2ccc(-c3cccc4[nH]nc(N)c34)cc2)c1 [ABT-869, N-[4-(3-amino-1H-indazol-4-yl)phenyl]-N′-(2-fluoro-5-methylphenyl)urea]
[1]; 42 patients across studies
  time to maximum plasma concentration: approximately 3 h
[1]; [4]
  Dose Normalized AUC24: 0.264 (41%) μg · hr/mL/mg
  Dose Normalized Cmax: 0.018 (37%) μg/mL/mg
[1]; [5]
  Dose Normalized AUC24: 0.229 (34%) μg · hr/mL/mg
  Dose Normalized Cmax: 0.016 (27%) μg/mL/mg
[1]; [6]
  Dose Normalized AUC24: 0.230 (39%) μg · hr/mL/mg
  Dose Normalized Cmax: 0.018 (33%) μg/mL/mg
[1]; [7]
  Dose Normalized AUC24: 0.273 (40%) μg · hr/mL/mg
  Dose Normalized Cmax: 0.017 (39%) μg/mL/mg
[1]; 42 patients across studies, read-out: mean terminal elimination half-life
  half-life: 13.9 to 23.1 h
[1]; Asian population, N 37, adjusted mean (% CV), read-out: T1/2 (converted)
  half-life: 18.4 h
[1]; Caucasian population, N 12, adjusted mean (% CV), read-out: T1/2 (converted)
  half-life: 14.5 h
[1]; Hematologic malignancies, N 17, adjusted mean (% CV), read-out: T1/2 (converted)
  half-life: 15.7 h
[1]; Solid tumors, N 32, adjusted mean (% CV), read-out: T1/2 (converted)
  half-life: 18.4 h
[2]; 0.10 mg/kg
  DLT: Grade 3 hypertension: 1 patient
[2]; 0.25 mg/kg
  DLT: Grade 3 hypertension: 1 patient
  DLT: Grade 3 proteinuria: 1 patient
[2]; 0.30 mg/kg
  DLT: Grade 3 proteinuria and Grade 3 hypertension: 2 patients
[2]; 10 mg/body
  DLT: Grade 3 fatigue: 1 patient
[2]; all cycles, N = 27
  Anorexia, Overall: 7 (25.9) n (%)
  Arthralgia, Overall: 6 (22.2) n (%)
  Constipation, Overall: 6 (22.2) n (%)
  Diarrhoea, Overall: 7 (25.9) n (%)
  Fatigue, Overall: 22 (81.5) n (%)
  Hypertension, Overall: 12 (44.4) n (%)
  Myalgia, Overall: 15 (55.6) n (%)
  Nausea, Overall: 5 (18.5) n (%)
  Oral Pain, Overall: 11 (40.7) n (%)
  Proteinuria, Overall: 6 (22.2) n (%)
  Vomiting, Overall: 5 (18.5) n (%)
[2]; [8]
  Anorexia, Grade 1: 6 n
  Anorexia, Grade 2: 1 n
  Anorexia, Grade 3/4: 0 n
  Arthralgia, Grade 1: 5 n
  Arthralgia, Grade 2: 1 n
  Arthralgia, Grade 3/4: 0 n
  Constipation, Grade 1: 0 n
  Constipation, Grade 2: 6 n
  Constipation, Grade 3/4: 0 n
  Diarrhoea, Grade 1: 6 n
  Diarrhoea, Grade 2: 1 n
  Diarrhoea, Grade 3/4: 0 n
  Fatigue, Grade 1: 14 n
  Fatigue, Grade 2: 4 n
  Hypertension, Grade 1: 0 n
  Hypertension, Grade 2: 8 n
  Hypertension, Grade 3/4: 4 n
  Myalgia, Grade 1: 9 n
  Myalgia, Grade 2: 6 n
  Myalgia, Grade 3/4: 0 n
  Nausea, Grade 1: 3 n
  Nausea, Grade 2: 2 n
  Nausea, Grade 3/4: 0 n
  Oral Pain, Grade 1: 9 n
  Oral Pain, Grade 2: 2 n
  Oral Pain, Grade 3/4: 0 n
  Proteinuria, Grade 1: 0 n
  Proteinuria, Grade 2: 2 n
  Proteinuria, Grade 3/4: 4 n
  Vomiting, Grade 1: 4 n
  Vomiting, Grade 2: 1 n
  Vomiting, Grade 3/4: 0 n
[2]; [9]
  Skin Related Event, Grade 1: 5 n
  Skin Related Event, Grade 2: 9 n
  Skin Related Event, Grade 3/4: 1 n
  Skin Related Event, Overall: 15 (55.6) n (%)
[2]; all cycles, N = 27, occurred in cycle 3 or later
  Fatigue, Grade 3/4: 4** n
[2]; study M04-710
  dose-limiting toxicities: hypertension, proteinuria and fatigue are dose-limiting
  reversibility of toxicities: treatable, or reversible with ABT-869 interruption
[3]
  Klebsiella Bacteraemia, Grade 1: 0 n
  Klebsiella Bacteraemia, Grade 2: 0 n
  Klebsiella Bacteraemia, Grade 3/4: 2 n
  Klebsiella Bacteraemia, Overall: 2 (20.0) n (%)
